Key:
TPP1 [1] = test: TPP1 immunofluorescence of brain sections after oral gemfibrozil in WT, PPARα−/− and PPARβ−/− mice; format: in vivo, mouse; conditions: oral 7.5 mg/kg body wt/day, 21 days
Text: After 21 days of treatment, mice were sacrificed and their brains fixed, embedded, and processed. Sections were made from different brain regions and for immunofluorescence staining on fresh frozen sections, anti-mouse TPP1 (1:200), goat anti mouse GFAP (1:100) were used. The samples were mounted and observed under Olympus BX41 fluorescence microscope (26).
Once we confirmed the involvement of PPARα in the fibrate mediated upregulation of TPP1 protein, we further checked whether the same results could be replicated in in vivo settings. WT, PPARα^−/− and PPARβ^−/− mice from same background were treated orally for 21 days with 7.5 mg/kg body wt/day gemfibrozil dissolved in 0.1% methylcellulose, which was also used as vehicle. At the end of the treatment, the mice were killed and different regions of their brain, viz. Substantia nigra pars compacta, cortex, hippocampus, and dentate gyrus were sectioned, and immunofluorescence was performed for the presence of TPP1.

lysosomal genes [2] = test: Quantitative real-time PCR for lysosomal genes in mouse astrocytes; format: cell-based; conditions: 25 μM gemfibrozil, different time points, serum free
Procedure: (§4) (FIG. 13A) Quantitative real-time PCR for lysosomal genes in mouse astrocytes treated with 25 μM gemfibrozil for different time points under serum free conditions. […] (FIG. 13B) RT-PCR for lysosomal genes in human astrocytes treated under same condition. […] Results represent 3 independent experiments.

TPP1 [3] = test: Immunofluorescence for TPP1 in mouse primary neurons; format: cell-based; conditions: mouse neurons from cortex, hippocampus, and striatum; 25 μM gemfibrozil and 10 μM fenofibrate, 24 hrs
Procedure: (§1) Following four 15 minute washes with filtered PBS, cells were incubated for 4-5 min with 4′, 6-diamidino-2-phenylindole (DAPI, 1:10,000; Sigma).

TPP1 [4] = test: Western blot and densitometric analysis of TPP1 in mouse primary astrocytes; format: cell-based
Procedure: Astroglia were isolated from mixed glial cultures as described (17,18) according to the procedure of Giulian and Baker (19). Briefly, on day 9, the mixed glial cultures were washed three times with Dulbecco's modified Eagle's medium/F-12 and subjected to shaking at 240 rpm for 2 h at 37° C. on a rotary shaker to remove microglia. After 2 days, the shaking was repeated for 24 h for the removal of oligodendroglia and to ensure the complete removal of all nonastroglial cells. The attached cells were seeded onto new plates for further studies.
Western blotting was conducted as described earlier (27,28) with modifications. Briefly, cells were scraped in double-distilled H20 and sodium dodecyl sulfate (SDS), electrophoresed on NuPAGE® Novex® 4-12% Bis-Tris gels (Invitrogen) and proteins transferred onto a nitrocellulose membrane (Bio-Rad) using the Thermo-Pierce Fast Semi-Dry Blotter. The membrane was then washed for 15 min in TBS plus Tween 20 (TBST) and blocked for 1 hr in TBST containing BSA. Next, membranes were incubated overnight at 4° C. under shaking conditions with the following 1° antibodies; TPP1 (1:250, Santa Cruz), β-actin (1:800; Abcam, Cambridge, Mass. The next day, membranes were washed in TBST for 1 hr, incubated in 2° antibodies against 1° antibody hosts (all 1:10,000; Jackson ImmunoResearch) for 1 hr at room temperature, washed for one more hour and visualized under the Odyssey® Infrared Imaging System (Li-COR, Lincoln, Nebr.).
Protein blots were analyzed using ImageJ (NIH, Bethesda, Md.) and bands were normalized to their respective β-actin loading controls. Data are representative of the average fold change with respect to control for three independent experiments.

[5] = test system: CLN2 knockdown mouse astrocytes; test: Peroxide assay in CLN2 knockdown mouse astrocytes; format: cell-based; conditions: astrocytes transfected with CLN2 siRNA 36 hrs, gemfibrozil (25 μM) 6 hrs
Procedure: Mouse astrocytes were transfected with CLN2 siRNA (1.0 μg) for 36 hrs and treated with gemfibrozil (25 μM) for 6 hrs. Cells were then harvested and subjected to peroxide assay.

Cln1 mRNA = Cln1 mRNA expression by semi-quantitative RT-PCR in mouse primary astrocytes; format: cell-based; conditions: 25 μM gemfibrozil, 2, 6, 12, and 24 hrs
Procedure: (§2) Astroglia were isolated from mixed glial cultures as described (17,18) according to the procedure of Giulian and Baker (19). Briefly, on day 9, the mixed glial cultures were washed three times with Dulbecco's modified Eagle's medium/F-12 and subjected to shaking at 240 rpm for 2 h at 37° C. on a rotary shaker to remove microglia. After 2 days, the shaking was repeated for 24 h for the removal of oligodendroglia and to ensure the complete removal of all nonastroglial cells. The attached cells were seeded onto new plates for further studies. Total RNA was isolated from mouse primary astrocytes and human primary astrocytes using RNA-Easy Qiagen (Valencia, Calif.) kit following manufactures protocol. Semi-quantitative RT-PCR was carried out as described earlier (24) using oligo (dT) 12-18 as primer and moloney murine leukemia virus reverse transcriptase (MMLV-RT, Invitrogen) in a 20 μl reaction mixture. The resulting cDNA was appropriately amplified using Promega Master Mix (Madison, Wis.) and the following primers (Invitrogen) for murine genes: […]

[6] = test system: tripeptidyl peptidase 1 (TPP1); test: Double-labeling for TPP1 and β-tubulin (FIG. 11); format: cell-based; conditions: 25 μM gemfibrozil and 10 μM fenofibrate, 24 hours
Text: (§3) DAPI was used to visualize nuclei. Results represent 3 independent experiments.

CLN2 (−/−) mice = test: Motor activity monitoring of CLN2 (−/−) mice; format: in vivo, mouse; conditions: after 2 weeks and 6 weeks of gemfibrozil treatment
Procedure: Each animal was allowed 5 mins of adaptation time followed by monitoring for 5 min. *p-value<0.05. n=15 (untreated), n=20 (treated)

TPP1 [7] = test: TPP1 activity assay on cell extracts of treated mouse brain cells; format: cell-based; conditions: WT astrocytes; 25 μM gemfibrozil and 10 μM fenofibrate, 24 hrs
Procedure: TPP-I activity was assayed in 96-well format plates using the following modification of the method described by Vines and Warburton (6). Briefly, samples and substrate (40 μL) were mixed in individual wells of polystyrene 96-well plate (Nalge Nunc International). […] A3401; Sigma; diluted freshly from a 25 mmol/L stock solution in dimethyl sulfoxide stored at -20° C.) in 0.15 mol/L NaCl-1 g/L Triton X-100-0.1 mol/L sodium acetate, adjusted to pH 4.0 at 20° C. Plates were centrifuged briefly to dispel bubbles and placed in a 37° C. Plates were mixed for 10 s before each reading. The plates were read from the bottom using 360/20 nm excitation and 460/25 nm emission filters. Prior to the assay, the optimum substrate concentration and total protein in cell extract that can used to get best results were determined in the same manner described above, using different substrate concentrations and protein concentrations in the cell extract.

TPP1 [8] = test: Immunofluorescence for TPP1 in human primary astrocytes; format: cell-based; conditions: 25 μM gemfibrozil and 10 μM fenofibrate, 24 hrs
Procedure: as §1

[9] = test system: lysosome-associated membrane protein 2 (LAMP2); test: Double-labeling for LAMP2 and β-tubulin in human neurons; format: cell-based; conditions: 25 μM gemfibrozil and 10 μM fenofibrate, 24 hours
Text: as §3

lysosomal genes [10] = test: RT-PCR for lysosomal genes in human astrocytes; format: cell-based; conditions: 25 μM gemfibrozil, serum free
Procedure: as §4

primary human astrocytes = test: LysoTracker labeling of lysosomes in primary human astrocytes; format: cell-based; conditions: 25 μM gemfibrozil and 10 μM fenofibrate, 24 hrs
Text: as §3

Cln3 mRNA = Cln3 mRNA expression by semi-quantitative RT-PCR in mouse primary astrocytes; format: cell-based; conditions: 25 μM gemfibrozil, 2, 6, 12, and 24 hrs
Procedure: as §2

## Cc1ccc(C)c(OCCCC(C)(C)C(=O)O)c1 [gemfibrozil]
TPP1 [1]; PPARβ−/− mice
  TPP1 in the dentate gyrus and CA1 region of the hippocampus (mostly non-neuronal cells): increased
  level of TPP1 in GFAP-positive astrocytes and tyrosine hydroxylase-positive neurons in the substantia nigra: increased
  level of TPP1 in GFAP-positive cortical astrocytes and NeuN-positive cortical neurons: markedly increased
TPP1 [1]; WT mice
  TPP1 in the dentate gyrus and CA1 region of the hippocampus (mostly non-neuronal cells): increased
  level of TPP1 in GFAP-positive astrocytes and tyrosine hydroxylase-positive neurons in the substantia nigra: increased
  level of TPP1 in GFAP-positive cortical astrocytes and NeuN-positive cortical neurons: markedly increased
Lysosomal genes [2]
  lysosomal genes mRNA (quantitative real-time PCR): upregulation
TPP1 [3]
  TPP1 (immunofluorescence): significant increase
TPP1 [4]; PPARα−/− astrocytes, 24 hrs
  TPP1 levels (immunoblot, densitometric analysis): no significant increase
TPP1 [4]; RXRα siRNA transfected astrocytes, gemfibrozil (10 μM), RA (0.5 μM) alone and in combination
  TPP1 levels (Western blot, densitometric analysis): almost no enhancement
[5]
  peroxide production: reduces peroxide production
Cln1 mRNA
  Cln1 mRNA expression: increase within 12 to 24 h
[6]
  lysosomal marker protein TPP1 (double-labeling): upregulation
CLN2 (−/−) mice
  motor activity parameters: delays the loss of motor activity
TPP1 [7]
  TPP1 enzymatic activity: drastically increased
TPP1 [8]
  level of TPP1 protein (immunofluorescence): considerable increase
[9]
  LAMP2 (double-labeling): upregulation
Lysosomal genes [10]
  lysosomal genes mRNA (RT-PCR): upregulation
Primary human astrocytes
  lysosomal proliferation (LysoTracker): upregulation
Cln3 mRNA
  Cln3 mRNA expression: increase within 12 to 24 h

Source: patent publication US11351142B2, “Composition and method for treating neuronal ceroid lipofuscinosis” (Rush University Medical Center, priority 2012, dated 2022)
